From patent US20250185656A1, “PIPERIDINONE DERIVATIVE OR SALT THEREOF, HARMFUL ORGANISM CONTROL AGENT CONTAINING SAID COMPOUND, AND METHOD FOR USING SAME” (ADEKA Corporation, priority 2022, published 2025)

Columns and labels:
Plutella xylostella = assay: Insecticidal test against Plutella xylostella; conditions: in Brassica rapa, 144 h, read-out: corrected mortality, rating of assessment
Source text: Insecticidal Test Against Plutella xylostella
Six days after the immersion in the drug solution, the number of surviving insects was examined. […] In triplicate using 10 per plot.

[1] = test system: Frankliniella occidentalis; assay: Insecticidal test against Frankliniella occidentalis; conditions: in Phaseolus vulgaris, 96 h, read-out: corrected mortality, rating of assessment
Source text: Insecticidal Test Against Frankliniella occidentalis
Female adults of Frankliniella occidentalis were inoculated onto Phaseolus vulgaris leaf pieces, and after allowing them to lay eggs for one day, the female adults were removed. […] Four days after the treatment, the number of surviving larvae of this species was examined. […] In duplicate.

[2] = test system: L-1 stage larvae of Dirofilaria immitis; assay: Evaluation test of influence on the movement of Dirofilaria immitis larvae; conditions: 72 h, read-out: corrected movement inhibition rate

## N#Cc1ccc(N2CC(O)=C(C(=O)Nc3ccc(F)cc3)C(=O)O2)cc1 [Compound 3-1, 2-(4-cyanophenyl)-N-(4-fluorophenyl)-4-hydroxy-6-oxo-3,6-dihydro-2H-1,2-oxazin-5-carboxamide]
Plutella xylostella
  mortality at 500 ppm: 100%

## CC(C)(C)OC(=O)N1CC(=O)C(C(=O)Nc2ccc(F)cc2)=C(O)C1 [Compound 1-36, tertiary-butyl 4-((4-fluorophenyl)carbamoyl)-5-hydroxy-3-oxo-3,6-dihydropyridine-1 (2H)-carboxylate]
Plutella xylostella
  mortality at 500 ppm: 100%
[1]
  mortality at 500 ppm: 100%
[2]
  inhibition at 50 ppm: ≥ 50%

## O=C1CN(c2ncc(Br)cn2)CC(O)=C1C(=O)Nc1ccc(F)cc1 [Compound 1-65, 1-(5-bromopyrimidin-2-yl)-N-(4-fluorophenyl)-5-hydroxy-3-oxo-1,2,3,6-tetrahydropyridine-4-carboxamide]
Plutella xylostella
  mortality at 500 ppm: 100%
[1]
  mortality at 500 ppm: 100%

## CC(C)(C)OC(=O)N1CC(=O)C(C(=S)Nc2ccc(Cl)cc2)=C(O)C1 [Compound 2-13, tertiary-butyl 4-((4-chlorophenyl)carbamothioyl)-5-hydroxy-3-oxo-3,6-dihydropyridine-1 (2H)-carboxylate]
Plutella xylostella
  mortality at 500 ppm: 100%
